The subject of this experiment is recombinant AMPK proteins (α1β1γ1, α2β1γ1, α1(1-335), α1(1-394) or α2(1-394)). The experiment is described as follows: Scintillation Proximity Assay (AMPK activation). It is filed as biochemical, human. The settings on record: effective concentration of activator for 50% of maximal enzyme activity; 2 hr at 30° C.; AMPK form not specified. An excerpt:
Recombinant human AMPK α1β1γ1, α2β1γ1 or AMPK a subunit truncations α1 (1-335), α1 (1-394) and α2(1-394) were constructed, expressed and purified as described previously (Pang, T., Zhang, Z. S., Gu, M., Qiu, B. Y., Yu, L. F., Cao, P. R., Shao, W., Su, M. B., Li, J. Y., Nan, F. J., and Li, J. (2008) or purchased from Invitrogen (San Diego, Calif., U.S.A.). Rat liver AMPK heterotrimer enzyme was obtained from Upstate (Billerica, Mass., U.S.A.).
Before the Scintillation Proximity Assay (SPA) assay, 200 nM recombinant AMPK proteins (α1β1γ1, α2β1γ1, α1(1-335), α1(1-394) or α2(1-394)) were fully phosphorylated as described previously (Pang et al., 2008). SPA reactions were performed in 96-well plates at a final volume of 50 μl containing 20 mM Tris-HCl pH 7.5, 5 mM MgCl2, 1 mM DTT, 2 μM biotin-SAMS, 2 μM ATP, 0.2 μCi/well [γ-^33P]ATP, and various amount of activator. Reactions were initiated by the addition of 50 nM recombinant AMPK proteins to the reaction solutions and incubated at 30° C. for 2 hr. After that, reactions were terminated by the addition of 40 μl stop solution containing 80 μg streptavidin-coated SPA beads per well, 50 mM EDTA, 0.1% Triton X-100 in PBS, pH 7.5 and incubated for 1 hr. Finally, a 160 μl suspension solution containing 2.4 M CsCl, 50 mM EDTA, and 0.1% Triton X-100 in PBS (pH 7.5) was added to the reaction solution to suspend SPA beads completely. SPA signals were determined with a Wallac MicroBeta plate counter (PerkinElmer) 30 min later for calculation of the amount of product formed. The amount of products formed in 2 hr was plotted against activator concentrations to determine the effective concentration of the activator (EC50) required for 50% of maximal enzyme activity.

With `COc1ccc([C@@H]2C[C@]23C(=O)N(Cc2cccc(C(=O)O)c2)c2ccccc23)cc1` (racemic) [Example 20, (1S,2S) and (1R,2R)-3-((2-(4-methoxyphenyl)-2′-oxospiro[cyclopropane-1,3′-indoline]-1′-yl)methyl)benzoic acid], the EC50 (commonly the midpoint of the concentration-response curve) stood at 900 nM.
Turning to `COc1ccc([C@H]2C[C@]23C(=O)N(Cc2cccc(C(=O)O)c2)c2ccccc23)cc1` (racemic) [Example 21, (1S,2R) and (1R,2S)-3-((2-(4-methoxyphenyl)-2′-oxospiro[cyclopropane-1,3′-indoline]-1′-yl)methyl)benzoic acid], the concentration for a half-maximal effect (EC50) turned out to be 2030 nM.
To `O=C(O)c1cccc(CN2C(=O)[C@]3(C[C@@H]3c3ccc(Cl)cc3)c3cc(F)ccc32)c1` (racemic) [Example 22, (1S,2R) and (1R,2S)-3-((2-(4-chlorophenyl)-5′-fluoro-2′-oxospiro[cyclopropane-1,3′-indoline]-1′-yl)methyl)benzoic acid] belongs 11200 nM; to `O=C(O)c1cccc(CN2C(=O)[C@]3(C[C@H]3c3ccc(Cl)cc3)c3cc(F)ccc32)c1` (racemic) [Example 23, (1S,2S) and (1R,2R)-3-((2-(4-chlorophenyl)-5′-fluoro-2′-oxospiro[cyclopropane-1,3′-indoline]-1′-yl)methyl)benzoic acid], 1660 nM.
With `O=C(O)c1cccc(CN2C(=O)[C@]3(C[C@@H]3c3ccc(F)cc3)c3ccccc32)c1` (racemic) [Example 24, (1S,2R) and (1R,2S)-3-((-2-(4-fluorophenyl)-2′-oxospiro[cyclopropane-1,3′-indoline]-1′-yl)methyl)benzoic acid], the EC50 worked out at 5750 nM.
As for `O=C(O)c1cccc(CN2C(=O)[C@]3(C[C@H]3c3ccc(F)cc3)c3ccccc32)c1` (racemic) [Example 26, (1S,2S) and (1R,2R)-3-((-2-(4-fluorophenyl)-2′-oxospiro[cyclopropane-1,3′-indoline]-1′-yl)methyl)benzoic acid], the concentration for a half-maximal effect (EC50) amounted to 1790 nM.
As for `O=C(c1cccc(CN2C(=O)[C@]3(C[C@@H]3c3ccc(Cl)cc3)c3ccccc32)c1)N1CCCCC1` (racemic) [Example 60, (1S,2R) and (1R,2S)-2-(4-chlorophenyl)-1′-(3-(piperidine-1-carbonyl)benzyl) Spiro[cyclopropane-1,3′-indolin]-2′-one], the figure is 3500 nM; as for `CC(C)NC(=O)c1cccc(CN2C(=O)[C@@]3(C[C@H]3c3ccc(Cl)cc3)c3ccccc32)c1` (racemic) [Example 61, (1R,2S) and (1S,2R)-3-((2-(4-chlorophenyl)-2′-oxospiro[cyclopropane-1,3′-indoline]-1′-yl)methyl)-N-isopropylbenzamide], 8670 nM.
As for `O=C(c1cccc(CN2C(=O)[C@]3(C[C@@H]3c3ccc(Cl)cc3)c3ccccc32)c1)N1CCNCC1` (racemic) [Example 62, (1S,2R) and (1R,2S)-2-(4-chlorophenyl)-1′-(3-(piperazine-1-carbonyl)benzyl)spiro[cyclopropane-1,3′-indolin]-2′-one], the figure is 6570 nM; as for `O=C(c1cccc(CN2C(=O)[C@@]3(C[C@H]3c3ccc(Cl)cc3)c3ccccc32)c1)N1CCOCC1` (racemic) [Example 63, (1R,2S) and (1S,2R)-2-(4-chlorophenyl)-1′-(3-(morpholine-4-carbonyl)benzyl)spiro[cyclopropane-1,3′-indolin]-2′-one], 1540 nM; as for `O=C(c1cccc(CN2C(=O)[C@@]3(C[C@H]3c3ccc(Cl)cc3)c3ccccc32)c1)N1CCN(c2ccncc2)CC1` (racemic) [Example 64, (1R,2S) and (1S,2R)-2-(4-chlorophenyl)-1′-(3-(4-(pyridin-4-yl)piperazine-1-carbonyl)benzyl)spiro[cyclopropane-1,3′-indolin]-2′-one], 1600 nM.
As for `CC(C)N1CCN(C(=O)c2cccc(CN3C(=O)[C@]4(C[C@@H]4c4ccc(Cl)cc4)c4ccccc43)c2)CC1` (racemic) [Example 65, (1S,2R) and (1R,2S)-2-(4-chlorophenyl)-1′-(3-(4-isopropylpiperazine-1-carbonyl)benzyl)spiro[cyclopropane-1,3′-indolin]-2′-one], the EC50 was found to be 1710 nM.
As for `Cc1cc(NC(=O)c2cccc(CN3C(=O)[C@@]4(C[C@H]4c4ccc(Cl)cc4)c4ccccc43)c2)[nH]n1` (racemic) [Example 67, (1R,2S) and (1S,2R)-3-((2-(4-chlorophenyl)-2′-oxospiro[cyclopropane-1,3′-indoline]-1′-yl)methyl)-N-(3-methyl-1 H-pyrazol-5-yl)benzamide], the figure is 2290 nM; as for `O=C(O)c1cccc(CN2C(=O)[C@]3(C[C@@H]3c3ccc(Cl)cc3)c3ccccc32)n1` (racemic) [Example 68, (1S,2R) and (1R,2S)-6-((2-(4-chlorophenyl)-2′-oxospiro[cyclopropane-1,3′-indoline]-1′-yl)methyl)picolinic acid], 2800 nM; as for `O=C1N(CC2CCOCC2)c2ccccc2[C@@]12C[C@@H]2c1ccc(Cl)cc1` (racemic) [Example 70, (1S,2R) and (1R,2S)-2-(4-chlorophenyl)-1′-((tetrahydro-2 H-pyran-4-yl)methyl)spiro[cyclopropane-1,3′-indolin]-2′-one], 1540 nM.
To `CCN(CC)CCN1C(=O)[C@]2(C[C@@H]2c2ccc(Cl)cc2)c2ccccc21` (racemic) [Example 71, (1S,2R) and (1R,2S)-2-(4-chlorophenyl)-1′-(2-(diethylamino)ethyl)spiro[cyclopropane-1,3′-indolin]-2′-one] belongs 3200 nM; to `O=C1N(CCN2CCOCC2)c2ccccc2[C@@]12C[C@@H]2c1ccc(Cl)cc1` (racemic) [Example 72, (1S,2R) and (1R,2S)-2-(4-chlorophenyl)-1′-(2-morpholinoethyl) spiro[cyclopropane-1,3′-indolin]-2′-one], 4100 nM.
As for `CS(=O)(=O)N1CCC(CN2C(=O)[C@]3(C[C@@H]3c3ccc(Cl)cc3)c3ccccc32)CC1` (racemic) [Example 73, (1S,2R) and (1R,2S)-2-(4-chlorophenyl)-1′-((1-(methylsulfonyl)piperidin-4-yl)methyl) Spiro[cyclopropane-1,3′-indolin]-2′-one], the figure is 1650 nM; as for `CC(C)N1CCN(CCN2C(=O)[C@]3(C[C@@H]3c3ccc(Cl)cc3)c3ccccc32)CC1` (racemic) [Example 74, (1S,2R) and (1R,2S)-2-(4-chlorophenyl)-1′-(2-(4-isopropylpiperazin-1-yl)ethyl)spiro [cyclopropane-1,3′-indolin]-2′-one], 8800 nM.
On to `CN(C)CCN1CCN(CCN2C(=O)[C@]3(C[C@@H]3c3ccc(Cl)cc3)c3ccccc32)CC1` (racemic) [Example 75, (1S,2R) and (1R,2S)-2-(4-chlorophenyl)-1′-(2-(4-(2-(dimethylamino)ethyl)piperazin-1-yl)ethyl) Spiro[cyclopropane-1,3′-indolin]-2′-one], for which the EC50 was 5910 nM.
As for `O=C1N(Cc2ccncc2)c2ccccc2[C@]12C[C@H]2c1ccc(Cl)cc1` (racemic) [Example 78, (1R,2S) and (1S,2R)-2-(4-chlorophenyl)-1′-(pyridin-4-ylmethyl)spiro[cyclopropane-1,3′-indolin]-2′-one], the figure is 4200 nM.
As for `O=C1N(Cc2cccnc2)c2ccccc2[C@@]12C[C@@H]2c1ccc(Cl)cc1` (racemic) [Example 79, (1S,2R) and (2R,1S)-2-(4-chlorophenyl)-1′-(pyridin-3-ylmethyl)spiro[cyclopropane-1,3′-indolin]-2′-one], the figure is 2600 nM.
For `O=C(O)Cn1cnc(N2C(=O)[C@]3(C[C@@H]3c3ccc(Cl)cc3)c3ccccc32)c1` (racemic) [Example 80, (1S,2R) and (1R,2S)-2-(4-(2-(4-chlorophenyl)-2′-oxospiro[cyclopropane-1,3′-indoline]-1′-yl)-1 H-imidazol-1-yl)acetic acid], the EC50 amounted to 1250 nM.
As for `O=C(O)c1cn(CCN2C(=O)[C@]3(C[C@@H]3c3ccc(Cl)cc3)c3ccccc32)cn1` (racemic) [Example 81, (1S,2R) and (1R,2S)-1-(2-(2-(4-chlorophenyl)-2′-oxospiro[cyclopropane-1,3′-indoline]-1′-yl)ethyl)-1H-imidazole-4-carboxylic acid], the figure is 2220 nM.
As to `O=C(O)c1cn(CCN2C(=O)[C@]3(C[C@H]3c3ccc(Cl)cc3)c3ccccc32)cn1` (racemic) [Example 82, (1S,2S) and (1R,2R)-1-(2-(2-(4-chlorophenyl)-2′-oxospiro[cyclopropane-1,3′-indoline]-1′-yl)ethyl)-1H-imidazole-4-carboxylic acid], the half-maximal effective concentration (EC50) amounted to 4030 nM.

For the origin of these results see patent US8354443B2, “Cyclopropane indolinone derivatives” (Hoffmann-La Roche Inc., priority 2009, dated 2013).
